Test results taken from EP4745136A1, “PROTEIN TYROSINE PHOSPHATASE INHIBITOR, COMPOSITION COMPRISING SAME, AND MEDICAL USE THEREOF” (Shenzhen Zhongge Biological Technology Co., Ltd., priority 2023, dated 2025).

Tests used:
PTPN2 = target: T1, PTPN2 (Homo sapiens, UniProt P17706); assay: PTPN2 inhibitory activity assay (HTRF); assay type: biochemical; settings: PTPN2 final concentration 1 nM, substrate 1 µM, 40 min at room temperature
T1 construct: purchased Sino biological 10570-H20B
T1 sequence (P17706 1-415): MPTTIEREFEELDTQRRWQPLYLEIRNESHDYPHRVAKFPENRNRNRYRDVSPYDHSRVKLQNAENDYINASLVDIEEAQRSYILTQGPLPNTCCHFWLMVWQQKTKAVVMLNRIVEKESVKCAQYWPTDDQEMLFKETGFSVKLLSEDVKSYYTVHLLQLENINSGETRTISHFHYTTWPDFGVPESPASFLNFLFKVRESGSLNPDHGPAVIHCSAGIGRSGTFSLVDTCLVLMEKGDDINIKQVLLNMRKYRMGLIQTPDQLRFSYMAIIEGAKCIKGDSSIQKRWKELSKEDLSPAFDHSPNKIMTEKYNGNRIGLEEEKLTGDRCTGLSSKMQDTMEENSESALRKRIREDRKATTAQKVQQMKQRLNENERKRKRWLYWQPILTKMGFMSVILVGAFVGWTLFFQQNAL
Experimental: The present invention employs HTRF assay to characterize the inhibitory activity of compounds against PTPN2. The specific experimental process was as follows: compounds were transferred to a 384-well plate (PE# 6007290) using ECHO, and enzymatic reaction buffer (50 mM HEPES pH 7.5, 10 mM EDTA,0.01% Tween 20, 2 mM DTT) was prepared. PTPN2 (Sino biological #10570-H20B) was diluted in the reaction buffer, PTPN2 (final concentration 1 nM) was added and incubated with the compound at room temperature for 10 min, then the substrate (final concentration 1 µM) (biotin-(NH-CH2-CH2-O-CH2-CH2-O-CH2-CO)-T-R-D-I-(PY)-E-T-D-Y-Y-R-K-K-NH2) (Genscript) was added, and the reaction was terminated by adding a quencher after incubation at room temperature for 40 min. A final concentration of 10 nM Eu-anti-P (PY20) antibody (Cisbio#AD0066) and 15 nM APC-Streptavidin (Cisbio#AD0201) was added and incubated at room temperature for 1 hour. The fluorescence values of the reacted 384-well plates were read at 620 nm and 665 nm using Envision, and the IC50 value of inhibiting PTPN2 enzyme activity (PTPN 2 IC50) was fitted by nonlinear regression analysis of a four-parameter logistic equation.

B16F10 cells = assay: B16F10 mIFNγ-induced cell growth inhibition assay (CTG); assay type: cell-based
Experimental: 40 µL (150 cells/well) of B16F10 cells (source ATCC Cat#CRL-6475) were inoculated into a 384-well plate, and the compounds were transferred to the 384-well plate containing cells using EHCO. One group of cells was added with 10 µL of complete medium (RPMI 1640 medium+10% FBS) without mIFNγ, one group was added with 10 µL of complete medium containing mIFNγ (source R&D Cat#485-MI/CF, final concentration 25 ng/ml), and different concentrations of compounds (DMSO content 0.5%) were added to the reaction system. The cell culture plates were incubated at 37 °C in 5% CO2 for 96 h. 25 µL of CTG was added, Envision was used for reading, the cell growth inhibition IC50 value (Cell IC50) was fitted by nonlinear regression analysis using a four-parameter logistic equation with DMSO/mIFNγ as the negative control and [drawing 152] as the positive control.

[1] = Mus musculus, B16-F10, 96 h, B16F10 cells with mIFNγ final concentration 25 ng/ml, CTG readout
[2] = B16F10 cells with mIFNγ final concentration 25 ng/ml, 96 h, CTG readout
[3] = Mus musculus, B16-F10; B16F10 cells with mIFNγ final concentration 25 ng/ml, 96 h, CTG readout

SMILES | IC50 (PTPN2) | GI50 (B16F10 cells; [1]) | GI50 (B16F10 cells; [2]) | GI50 (B16F10 cells; [3])
CC(C)CCNCC1Cc2cc(O)c(N3CC(=O)NS3(=O)=O)c(F)c2/C1=C/F (racemic) [Compound 4] | ≤ 20 nM | 1000 to 10000 nM | – | –
CC(C)CCNCC1Cc2cc(O)c(N3CC(=O)NS3(=O)=O)c(F)c2/C1=C\F (racemic) [Compound 7] | 20 to 100 nM | 10000 to 100000 nM | – | –
CC(C)CCN[C@H]1Cc2c(cc(O)c(N3CC(=O)NS3(=O)=O)c2F)C2CC21 (single isomer, unassigned) [Compound 2] | 100 to 500 nM | – | 10000 to 100000 nM | –
CC(C)CCN[C@H]1Cc2c(cc(O)c(N3CC(=O)NS3(=O)=O)c2F)C2CC21 (single isomer, unassigned) [Compound 3] | ≤ 20 nM | – | ≤ 1000 nM | –
CC(C)CCNCC1Cc2cc(O)c(N3CC(=O)NS3(=O)=O)c(F)c2/C1=C/F (single isomer, unassigned) [Compound 5] | 100 to 500 nM | – | 10000 to 100000 nM | –
CC(C)CCNCC1Cc2cc(O)c(N3CC(=O)NS3(=O)=O)c(F)c2/C1=C/F (single isomer, unassigned) [Compound 6] | ≤ 20 nM | – | ≤ 1000 nM | –
CC(C)CCN[C@H]1Cc2c(cc(O)c(N3CC(=O)NS3(=O)=O)c2F)C2CC21 (some centres unmarked) [Compound 1] | ≤ 20 nM | 1000 to 10000 nM | – | –
O=C1CN(c2c(O)cc3c(c2F)C[C@H](NCCCC(F)(F)F)C2CC32)S(=O)(=O)N1 (some centres unmarked) [Compound 8] | ≤ 20 nM | ≤ 1000 nM | – | –
CC(C)(CCN[C@H]1Cc2c(cc(O)c(N3CC(=O)NS3(=O)=O)c2F)C2CC21)C(F)(F)F (some centres unmarked) [Compound 9] | ≤ 20 nM | 1000 to 10000 nM | – | –
CC(C)(C)CCN[C@H]1Cc2c(cc(O)c(N3CC(=O)NS3(=O)=O)c2F)C2CC21 (some centres unmarked) [Compound 10] | ≤ 20 nM | – | – | 1000 to 10000 nM
O=C1CN(c2c(O)cc3c(c2F)C[C@H](NCCC2CCCCC2)C2CC32)S(=O)(=O)N1 (some centres unmarked) [Compound 11] | ≤ 20 nM | – | – | 10000 to 100000 nM
O=C1CN(c2c(O)cc3c(c2F)C[C@H](NCC2CCCCO2)C2CC32)S(=O)(=O)N1 (some centres unmarked) [Compound 16] | 100 to 500 nM | – | – | 1000 to 10000 nM
O=C1CN(c2c(O)cc3c(c2F)C[C@H](NCCC2CCCC2)C2CC32)S(=O)(=O)N1 (some centres unmarked) [Compound 17] | ≤ 20 nM | – | – | 1000 to 10000 nM
